Earlier results as cited in patent US20090117102A1, “Methods and compositions using CD3 agonists” (priority 2004, published 2009).

Legend:
T cell [1] = conditions: Van Wauve, J. Immunol. 124 (1980)
T cell [2] = conditions: Wong Transplantation 50 (1990)

OKT3: murine monoclonal antibody specific for the human CD3 antigen, first monoclonal antibody approved by the FDA
T cell mitogen activity (T cell [1]): potent T cell mitogen
T cell killer activity (T cell [2]): potent T cell killer
